In BindingDB's records for patent US20250236609 (Deciphera Pharmaceuticals, 2025) one finds IC50 data, which are given here for 1 compound.

The experiment has as its target Phosphatidylinositol 3-kinase catalytic subunit type 3 (Homo sapiens, UniProt Q8NEB9). The experiment can be described thus: Biochemical Assay for VPS34. On the procedure:
Activity of VPS34 kinase was determined using an ADP-Glo kinase activity assay (Promega Corp). Assays were conducted in 384-well plates (5 μL assay volume) using 25 nM VPS34 (ThermoFisher Scientific), […] PI:3PS Lipid Kinase Substrate (Promega Corp.), and 1 mM ATP in kinase buffer. Inhibition of VPS34 was measured by adding serial diluted test compound (final assay concentration of 0.1% DMSO) followed by a 1-hour incubation at 37° C. ADP-Glo reagent was then added […] followed by a 40 min incubation at rt. Kinase detection reagent was then added […] and followed by a 60 min incubation at rt. Luminescence was then detected. The RLU at each compound concentration of was converted to percent inhibition using controls (i.e., reaction with no test compound and reaction with a known inhibitor) and IC50 values were calculated by fitting a four-parameter sigmoidal curve to the data using GeneData Screener software.

Each structure is given as a SMILES string.

Phosphatidylinositol 3-kinase catalytic subunit type 3, sequence (Q8NEB9 whole entry): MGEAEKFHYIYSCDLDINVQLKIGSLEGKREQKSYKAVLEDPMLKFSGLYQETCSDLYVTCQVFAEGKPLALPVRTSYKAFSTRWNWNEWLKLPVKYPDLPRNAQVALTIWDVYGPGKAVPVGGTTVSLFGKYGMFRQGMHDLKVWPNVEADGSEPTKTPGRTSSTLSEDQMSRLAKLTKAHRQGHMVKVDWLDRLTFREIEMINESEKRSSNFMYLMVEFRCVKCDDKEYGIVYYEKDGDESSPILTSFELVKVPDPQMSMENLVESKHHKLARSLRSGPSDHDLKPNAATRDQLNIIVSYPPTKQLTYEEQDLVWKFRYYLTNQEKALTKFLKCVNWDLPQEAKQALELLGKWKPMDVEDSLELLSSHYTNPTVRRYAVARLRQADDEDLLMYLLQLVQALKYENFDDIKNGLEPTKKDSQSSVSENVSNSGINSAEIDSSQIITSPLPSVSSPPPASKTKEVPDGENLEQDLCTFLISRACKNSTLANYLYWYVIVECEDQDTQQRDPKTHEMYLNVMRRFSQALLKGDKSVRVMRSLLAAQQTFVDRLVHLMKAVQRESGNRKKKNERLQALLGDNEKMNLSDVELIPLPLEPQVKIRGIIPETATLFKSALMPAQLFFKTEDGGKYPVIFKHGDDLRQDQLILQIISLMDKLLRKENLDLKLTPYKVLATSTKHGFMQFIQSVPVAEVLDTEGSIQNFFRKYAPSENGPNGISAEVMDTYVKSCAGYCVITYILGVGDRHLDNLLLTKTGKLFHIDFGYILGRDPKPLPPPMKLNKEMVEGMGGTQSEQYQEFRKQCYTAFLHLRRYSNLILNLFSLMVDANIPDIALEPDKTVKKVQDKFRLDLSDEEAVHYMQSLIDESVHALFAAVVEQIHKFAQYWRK

What is called IC50 is the concentration that gives 50% inhibition. Read a high IC50 as lower potency. Compound `COC(=O)Nc1cc(-c2cc(-c3cnccc3C(F)(F)F)[nH]c(=O)c2)c(C)cn1` [US20250236609, Example 4] showed a half-inhibitory concentration (IC50) below 100 nM.
